The source of these data is patent publication US4994617A, “Aminoalcohols, their preparation process and their applications, particularly in therapeutics” (Jouveinal S.A., priority 1986, dated 1991).

Assay [1] deals with mice. Briefly: tail hanging test, activity on the S.N.C. (central nervous system), mice, oral. The assay is classed as in vivo, mouse. As to conditions: 1 hour before the test; for change in vivo at 32 mg/kg / change in vivo at 128 mg/kg: Mus musculus, po, 1 h, read-out: S.N.C.: Hanging test, activity percentages compared with the controls. As for the experimental part: This activity was investigated on mice using the tail hanging test in accordance with the procedure described by Thierry et al. (Behavioral and Neural Biology, 1984, 41, 180-189), which was proposed as a model for the animal for the selection of products active on the S.N.C.
The tests were carried out on batches of 10 male mice for each product and at each dose, the substances to be investigated being administered orally in aqueous solution 1 hour before the test, a control batch only receiving distilled water.
The results of the tests are given in activity percentages compared with the controls.

The test system of assay [2] is mice. Briefly: acetic acid test, analgesic activity, mice, oral. The class given is in vivo, mouse. As to conditions: for Analgesia: Acetic acid test, percentages of analgesed animals: Dose: 30 mg/kg, 30 minutes before acetic acid injection; for ED50: Mus musculus, read-out: Analgesia: Acetic acid test, ED50 (dose causing analgesia of 50% of the animals). The method, then: This was investigated and determined on mice using the acetic acid test according to a procedure derived from that of Troster R. (Fed. Proc. 1959, 18, 412).
20 hours prior to the test, the animals were starved of food and drink. This was followed by the oral administration in aqueous solution of the product to be investigated at a rate of 2 ml of solution per 100 g of body weight, which was followed 30 minutes later by an intraperitoneal injection of 0.25 ml of 0.25% acetic acid solution (wt/v) maintained at 37° C. 30 minutes after this injection, the number of abdominal cramps suffered by the animals were counted for a period of 10 minutes.
The animals were considered to be analgesed when the number of cramps suffered was less than half the mean value of the cramps experienced by the controls.
The products were administered at a dose rate of 30 mg-kg^-1 and the results are given in percentages of analgesed animals. For certain products, several doses were administered and the calculation of their ED50 (dose causing analgesia of 50% of the animals) was determined in log probability units.

Usually ED50 stands for the dose that gives a 50% effect, or the effect in half of the subjects. On to `CN(C)C(C)(CO)Cc1ccc(Cl)c(Cl)c1` (racemic) [JO 1017, (±) 2-methyl-2-dimethylamino-3-(3,4-dichlorophenyl)-propanol], for which, in the assay with mice [1] (Dose: 32 mg/kg), the change in vivo at 32 mg/kg was -65%. Also, the change in vivo at 128 mg/kg with mice [1] (Dose: 128 mg/kg) was -85%. Further, in the assay with mice [2], the “Analgesia: Acetic acid test, percentages of analgesed animals” value (“Analgesia: Acetic acid test, percentages” for short) was -86% and the ED50 is 14 mg/kg.

Take `CC(N)(CO)Cc1ccc(Cl)c(Cl)c1` (racemic) [JO 1275, (±) 2-methyl-2-amino-3-(3,4-dichlorophenyl)-propanol]: the change in vivo at 32 mg/kg in the assay with mice [1] (Dose: 32 mg/kg) is -78%. Moreover, the change in vivo at 128 mg/kg in the assay on mice [1] (Dose: 128 mg/kg) was -86%. The “Analgesia: Acetic acid test, percentages” value in the assay with mice [2] was -43%.

For the compound `CNC(C)(CO)Cc1ccc(Cl)c(Cl)c1` (racemic) [JO 1276, (±) 2-methyl-2-methylamino-3-(3,4-dichlorophenyl)-propanol], the change in vivo at 32 mg/kg in the assay on mice [1] (Dose: 32 mg/kg) was -58%. For the same compound, the change in vivo at 128 mg/kg with mice [1] (Dose: 128 mg/kg) was -83%. Besides, in the assay on mice [2], the “Analgesia: Acetic acid test, percentages” value is -86% and the ED50 stood at 8.5 mg/kg.

As to `CCNC(C)(CO)Cc1ccc(Cl)c(Cl)c1` (racemic) [JO 1277, (±) 2-methyl-2-ethylamino-3-(3,4-dichlorophenyl)-propanol], the “Analgesia: Acetic acid test, percentages” value with mice [2] is listed as -43%.

On to `CCN(C)C(C)(CO)Cc1ccc(Cl)c(Cl)c1` (racemic) [JO 1291, (±) 2-methyl-2-(N-methyl, N-ethyl)-amino-3-(3,4-dichlorophenyl)-propanol], for which the change in vivo at 32 mg/kg with mice [1] (Dose: 32 mg/kg) was -58%. The “Analgesia: Acetic acid test, percentages” value in the assay on mice [2] is listed as -38%.

With `CN(CCc1ccccc1)C(C)(CO)Cc1ccc(Cl)c(Cl)c1` (racemic) [JO 1457, (±) 2-methyl-2-[N-methyl, N-(2-phenyl)-ethyl]-amino-3-(3,4-dichlorophenyl)-propanol], the change in vivo at 32 mg/kg with mice [1] (Dose: 32 mg/kg) was -60%.

For `CCCCCC(N)(CO)Cc1ccc(Cl)c(Cl)c1` (racemic) [JO 1562, (±) 2-pentyl-2-amino-3 (3,4-dichlorophenyl)-propanol], the change in vivo at 32 mg/kg with mice [1] (Dose: 32 mg/kg) was -73%.

For the compound `CCCCCC(CO)(Cc1ccc(Cl)c(Cl)c1)NC` (racemic) [JO 1563, (±) 2-penthyl-2-methylamino-3-(3,4-dichlorophenyl)-propanol], the change in vivo at 32 mg/kg in the assay with mice [1] (Dose: 32 mg/kg) is -49%. In addition, the change in vivo at 128 mg/kg in the assay with mice [1] (Dose: 128 mg/kg) is -71%.

For the compound `CCCCCC(CO)(Cc1ccc(Cl)c(Cl)c1)N(C)C` (racemic) [JO 1564, (±) 2-pentyl-2-dimethylamino-3-(3,4-dichlorophenyl)-propanol], the change in vivo at 128 mg/kg with mice [1] (Dose: 128 mg/kg) was -74%.

As for `CC(C)C(N)(CO)Cc1ccc(Cl)c(Cl)c1` (racemic) [JO 1579, (±) 2-isopropyl-2-amino-3 (3,4-dichlorophenyl)-propanol], in the assay with mice [1] (Dose: 128 mg/kg), the change in vivo at 128 mg/kg was -67%.

`C=CCN(C)C(C)(CO)Cc1ccc(Cl)c(Cl)c1` (racemic) [JO 1581, (±) 21-methyl-2-(N-methyl, N-allyl)-amino-3-(3,4-dichlorophenyl)-propanol]: the change in vivo at 128 mg/kg in the assay on mice [1] (Dose: 128 mg/kg) was -61%.

Consider `CN(C)C(C)(CO)Cc1ccc(Cl)c(Cl)c1` (single isomer, unassigned; (+)) [JO 1240, (+) 2-methyl-2-dimethylamino-3-(3,4-dichlorphenyl)-propanol], for which the “S.N.C.: Hanging test, activity percentages compared with the controls” value in the assay on mice [1] (Dose: 32 mg/kg, 32 mg/kg) is on record as -77%; with mice [1] (Dose: 128 mg/kg, 128 mg/kg), -85%.

On to `CC(N)(CO)Cc1ccc(Cl)c(Cl)c1` (single isomer, unassigned; (+)) [JO 1307, (+) 2-methyl-2-amino-3-(3,4-dichlorophenyl)-propanol], for which, in the assay with mice [2], the “Analgesia: Acetic acid test, percentages” value is on record as -50%.

On to `CNC(C)(CO)Cc1ccc(Cl)c(Cl)c1` (single isomer, unassigned; (+)) [JO 1308, (+) 2-methyl-2-methylamino-3-(3,4-dichlorophenyl)-propanol], for which the “Analgesia: Acetic acid test, percentages” value with mice [2] was -88%.

`CN(C)C(C)(CO)Cc1ccc(Cl)c(Cl)c1` (single isomer, unassigned; (-)) [JO 1239, (-) 2-methyl-2-dimethylamino-3-(3,4-dichlorophenyl)-propanol]: in the assay on mice [1] (Dose: 32 mg/kg, 32 mg/kg), the “S.N.C.: Hanging test, activity percentages compared with the controls” value is reported as -74%. For the same compound, in the assay with mice [1] (Dose: 128 mg/kg, 128 mg/kg), the “S.N.C.: Hanging test, activity percentages compared with the controls” value is listed as -64%. In addition, in the assay on mice [2], the “Analgesia: Acetic acid test, percentages” value is reported as -86% and the median effective dose (ED50) came to 11 mg/kg.

With `CCNC(C)(CO)Cc1ccc(Cl)c(Cl)c1` (single isomer, unassigned; (-)) [JO 1296, (-) 2-methyl-2-ethylamino-3-(3,4-dichlorophenyl)-propanol], the “Analgesia: Acetic acid test, percentages” value in the assay with mice [2] is reported as -38%.

In the case of `CN(C)CCCN1c2ccccc2CCc2ccc(Cl)cc21` [Clomipramine, clomipramine, reference compound], in the assay with mice [1] (Dose: 32 mg/kg), the change in vivo at 32 mg/kg was -49%. Further, in the assay on mice [1] (Dose: 128 mg/kg), the change in vivo at 128 mg/kg was -54%.
